Results: patent publication US8039488B2, “Methods and compositions for inhibition of angiogenesis” (Children's Medical Center Corporation, priority 1996, dated 2011)

What was measured:
[1] = system: bFGF induced corneal neovascularization; experiment: Rabbit cornea angiogenesis assay; type: in vivo
Protocol: (§1) Pellets for implantation into rabbit corneas were made by mixing 110 μl of saline containing 12 μg of recombinant bFGF (Takeda Pharmaceuticals-Japan) with 40 mg of sucralfate (Bukh Meditec-Denmark); this suspension was added to 80 μl of 12% hydron (Interferon Sciences) in ethanol. 10 μl aliquots of this mixture was then pipetted onto Teflon pegs and allowed to dry producing approximately 17 pellets. A pellet was implanted into corneal micropockets of each eye of an anesthetized female New Zealand white rabbit, 2 mm from the limbus followed by topical application of erythromycin ointment onto the surface of the cornea. The animals were fed daily from 2 days post-implantation by gastric lavage with either drug suspended in 0.5% carboxymethyl cellulose or 0.5% carboxymethyl cellulose alone. Thalidomide was purchased from Andrulus Pharmaceutical (Maryland) and the EM-12 and Supidimide were kindly provided by Grunenthal GMBH (Germany). The animals were examined with a slit lamp every other day in a masked manner by the same corneal specialist. The area of corneal neovascularization was determined by measuring with a reticule the vessel length (L) from the limbus and the number of clock hours (C) of limbus involved. A formula was used to determine the area of a circular band segment: C/12*3.1416 [r^2−(r−L)^2] where r=6 mm the measured radius of the rabbit cornea.
Pellets containing bFGF and sucralfate were implanted into micropockets of both corneas of rabbits according to Example II. Vessel ingrowth into clear cornea from the limbus was first noted on day 2 and treatments (200 mg/kg orally) were begun on this day. The area of corneal neovascularization was measured from day 4 through day 12. Day 8 measurements were used for comparison between groups. […] Statistical analysis was performed with ANOVA with ranked data to account for interexperimental variation and to guard against a non-normal distribution of data (i.e. outliers) by utilizing a nonparametric method.

[2] = system: chick embryo chorioallantoic membrane; experiment: Chick embryo chorioallantoic membrane (CAM) assay; type: in vivo; conditions: examined 48 hours after implantation
Text: The chick embryo chorioallantoic membrane assay described by Crum et al., Science 230:1375 et seq. […] See also, U.S. Pat. No. 5,001,116, hereby incorporated by reference, which describes the CAM assay at col. 7 of the patent. Briefly, fertilized chick embryos were removed from their shell on day 3 or 4, and a methylcellulose disc containing the compound was implanted on the chorioallantoic membrane.

[3] = system: bFGF induced angiogenesis; experiment: Angiogenesis in the eye, assay described in Example 2, bFGF; type: in vivo, rabbit
Protocol: (§2) Angiogenesis in the eye, in the assay described in Example 2, is produced by the presence of bFGF (basic fibroblastic growth factor) and VEGF (vascular endothelial cell growth factor).
as §1

[4] = system: VEGF induced angiogenesis; experiment: Angiogenesis in the eye, assay described in Example 2, VEGF; type: in vivo, rabbit
Protocol: as §2, §1

[5] = system: bFGF induced angiogenesis; experiment: Mouse corneal micropocket assay, bFGF pellets; type: in vivo, mice; conditions: for inhibition in vivo at 100 mg/kg: dose 100 mg/kg once daily, area of corneal neovascularization vs controls; for inhibition in vivo at 200 mg/kg: dose 200 mg/kg once daily; for inhibition of bFGF induced neovascularization: dose not given
Protocol: (§3) Six to eight week old C57B 16 male mice were obtained from Jackson Laboratories, MA. The mice were anesthetized, and 0.4×0.4 mm pockets were made in the stroma of the mouse cornea adjacent to the limbus. Pellets containing 80 ng of either bFGF or VEGF were implanted in the pellets. The pellets containing bFGF were implanted 1.0-1.2 mm from the limbal vessels, while the pellets containing VEGF were implanted 0.5-0.7 mm from the limbal vessels. Erythromycin was then topically applied.
(§4) The vascular response to the pellets was measured by maximal vessel length and number of clock hours of neovascularization 5 days after implantation of the bFGF pellets and 6 days after implantation of the VEGF pellets. The area of corneal neovascularization was calculated using the following formula which best approximated the area of neovascularization: Area (mm^2)=[π×clock hours×length (mm)×0.2 (mm)].
(§5) Inhibitory effect is expressed in percentage representing the area of corneal neovascularization by either bFGF or VEGF compared to controls (n=8/experiment) of the experiments in which that particular drug was tested. N=the number of eyes that were tested and drugs were given once daily either sc, ip or oral as described.
as §3, with “implanted.” for “implanted in the pellets.”
as §4, with “The mice were then treated with thalidomide, indomethacin, sulindac, or combinations of thalidomide with either indomethacin or sulindac. The vascular” for “The vascular”, “which best approximates the area” for “which best approximated the area”
Six to eight week old C57B16 male mice, obtained from Jackson Laboratories, MA, were anesthetized, and 0.4×0.4 mm pockets were made in the stroma of the mouse cornea adjacent to the limbus. Pellets containing 80 ng of bFGF were implanted 1.0-1.2 mm from the limbal vessels. Erythromycin was then topically applied.
(§6) The mice were then treated with sulindac, or one of the sulindac derivatives, sulindac sulfone or sulindac sulfide. The vascular response to the pellets was measured by maximal vessel length and number of clock hours of neovascularization 5 days after implantation of the bFGF pellets. The area of corneal neovascularization was calculated using the following formula which best approximates the area of neovascularization: Area (mm^2)=[π×clock hours×length (mm)×0.2 (mm)].
Inhibitory effect is expressed in percentage representing the area of corneal neovascularization by bFGF compared to controls (n=8/experiment. N=the number of eyes that were tested and drugs were given once daily either sc, ip or oral as described.

[6] = system: bFGF induced corneal neovascularization; experiment: Rabbit cornea angiogenesis assay; type: in vivo; conditions: 100 mg/kg/day
[7] = system: VEGF induced angiogenesis; experiment: Mouse corneal micropocket assay, VEGF pellets; type: in vivo, mice; conditions: 6 days after implantation
Protocol: as §3, §4, §5
as §3, with “implanted.” for “implanted in the pellets.”
as §6, with “with thalidomide, indomethacin,” for “with”, “combinations” for “one”, “thalidomide with either indomethacin” for “the sulindac derivatives, sulindac sulfone”, “sulindac.” for “sulindac sulfide.”, “bFGF pellets and 6 days after implantation of the VEGF” for “bFGF”

[8] = system: V2-carcinoma; experiment: V2-carcinoma tumor assay in rabbits; type: in vivo, rabbit; conditions: 17 days after start of treatment
Protocol: New Zealand White female rabbits, weighing approximately 1.5 kg, obtained from Charles River, Mass., were used for propagating the V2-carcinoma. This tumor originates from a Shope virus-induced papilloma. Small 0.5×0.5 cm pieces were implanted intramuscularly in the right thigh. Treatment with 200 mg/kg/day thalidomide (n=14), 60 mg/kg/day sulindac (n=5), or a combination of thalidomide and sulindac (n=10) was started at day 10 after tumor implantation, when the mean volume of the tumor was 6 cm^3. The control animals (n=13) were treated with methylcellulose. […] The data were collected in 3 separate experiments and each bar represents the standard error of the mean.

[9] = system: Crohn's disease; experiment: Treatment of a patient with Crohn's disease; type: in vivo, human; conditions: 100 mg twice a day orally, one week
Protocol: A patient with Crohn's disease was treated using the methods of the present invention. […] Thalidomide was orally administered to them at a dosage of 100 mg twice a day.

[10] = Mus musculus, 120 h, 5 days after implantation
[11] = Mus musculus, 120 h, dose 25 mg/kg once daily, 5 days after implantation

## O=C(O)CCC(C(=O)O)N1C(=O)c2ccccc2C1=O (racemic) [Phthaloyl glutamic acid, N-phthaloyl-DL-glutamic acid]
[1]; 200 mg/kg
  inhibition of angiogenesis in the rabbit cornea assay: 29%
[1]; 200 mg/kg orally
  inhibitory activity on corneal neovascularization, in words: weaker inhibitory effects than thalidomide
[2]
  CAM assay result (avascular zone around the methylcellulose disc): avascular zone with a mild scar

## CO[C@@H]1[C@H](OC(=O)NC(=O)CCl)CC[C@]2(CO2)[C@H]1[C@@]1(C)O[C@@H]1CC=C(C)C [AGM 1470]
[3]; dose 30 mg/kg qod
  % Inhibition of bFGF induced angiogenesis: 48%

## CC(=O)Nc1ccc(O)cc1 [Acetaminophen]
[3]; dose 100 mg/kg
  % Inhibition of bFGF induced angiogenesis: 0%
[4]; dose 100 mg/kg
  % Inhibition of VEGF induced angiogenesis: 0%
[5]; [10]
  inhibition in vivo at 100 mg/kg: 0%

## CC(=O)Oc1ccccc1C(=O)O [Aspirin, aspirin]
[3]; dose 100 mg/kg
  % Inhibition of bFGF induced angiogenesis: 8%

## O=C1CCC(N2Cc3ccccc3C2=O)C(=O)N1 (stereo not shown) [EM-12]
[1]; 200 mg/kg orally, day 8
  median inhibition of the area of vascularized cornea: 42%
[1]; 200 mg/kg/day
  % inhibition in the rabbit cornea assay: 43%
[6]
  % inhibition in the rabbit cornea assay: 21%

## O=c1ccc2cc(O)c(O)cc2o1 [Esculetin, esculetin]
[5]; [10]
  inhibition in vivo at 200 mg/kg: 15%

## C[C@]12CCC(=O)C=C1CC[C@@H]1[C@@H]2[C@@H](O)C[C@@]2(C)[C@H]1CC[C@]2(O)C(=O)CO [Hydrocortisone, hydrocortisone]
[3]; dose 20 mg/kg
  % Inhibition of bFGF induced angiogenesis: 50%
[4]; dose 20 mg/kg
  % Inhibition of VEGF induced angiogenesis: 40%

## CC(C)Cc1ccc(C(C)C(=O)O)cc1 (stereo not shown) [Ibuprofen, ibuprofen]
[3]; dose 20 mg/kg
  % Inhibition of bFGF induced angiogenesis: 7%
[4]; dose 20 mg/kg
  % Inhibition of VEGF induced angiogenesis: 11%
[5]; [11]
  inhibition in vivo at 25 mg/kg: 6%
[7]; dose 25 mg/kg once daily
  % Inhibition of VEGF induced angiogenesis: 8%

## COc1ccc2c(c1)c(CC(=O)O)c(C)n2C(=O)c1ccc(Cl)cc1 [Indomethacin, indomethacin]
[5]; Mus musculus, 120 h, dose 5 mg/kg once daily, 5 days after implantation
  inhibition in vivo at 5 mg/kg: 59%
[7]; dose 5 mg/kg once daily
  % Inhibition of VEGF induced angiogenesis: 61%

## C[C@H](Cc1ccc(O)c(O)c1)[C@@H](C)Cc1ccc(O)c(O)c1 [NDGA, nordihydroguiaretic acid]
[5]; [11]
  inhibition in vivo at 25 mg/kg: 30%

## CS(=O)(=O)Nc1ccc([N+](=O)[O-])cc1OC1CCCCC1 [NS-398]
[5]
  inhibition of bFGF induced neovascularization: 25%

## O=C1CCC(N2C(=O)c3ccccc3C2=O)C(=O)O1 (stereo not shown) [PGA]
[1]; 200 mg/kg orally
  inhibitory activity on corneal neovascularization, in words: weaker inhibitory effects than thalidomide

## O=C1CCN(c2ccccc2)N1 [Phenidone, phenidone]
[5]; [10]
  inhibition in vivo at 100 mg/kg: 17%

## O=c1c(O)c(-c2ccc(O)c(O)c2)oc2cc(O)cc(O)c12 [Quercetin, quercetin]
[5]; Mus musculus, 120 h, dose 300 mg/kg once daily, 5 days after implantation
  inhibition in vivo at 300 mg/kg: 18%

## CCCC(C(=O)OCCN(CC)CC)(c1ccccc1)c1ccccc1.Cl [SKF525AHCL]
[5]
  inhibition of bFGF induced neovascularization: 25%

## CSc1ccc(/C=C2/C(C)=C(CC(=O)O)c3cc(F)ccc32)cc1 [Sulindac sulfide, sulindac sulfide]
[5]; [11]
  inhibition in vivo at 25 mg/kg: 31%
[5]; dose 50 mg/kg once daily, bFGF pellets, 5 days after implantation
  % inhibition: 34%
[5]
  inhibition of bFGF induced neovascularization: 34%

## CC1=C(CC(=O)O)c2cc(F)ccc2/C1=C\c1ccc(S(C)(=O)=O)cc1 [Sulindac sulfone, sulindac sulfone]
[5]; dose 25 mg/kg once daily, 5 days after implantation
  % Inhibition of bFGF induced angiogenesis: 31%
[5]
  inhibition of bFGF induced neovascularization: 31%

## CC1=C(CC(=O)O)c2cc(F)ccc2/C1=C\c1ccc([S+](C)[O-])cc1 (stereo not shown) [Sulindac, (Z)-5-Fluoro-2-methyl-1-[[4-(methyl-sulfinyl)phenyl]methylene]-1H-indene-3-acetic acid]
[3]; dose 25 mg/kg
  % Inhibition of bFGF induced angiogenesis: 52%
[4]; dose 25 mg/kg
  % Inhibition of VEGF induced angiogenesis: 54%
[5]; [11]
  inhibition in vivo at 25 mg/kg: 50%
[7]; dose 25 mg/kg once daily
  % Inhibition of VEGF induced angiogenesis: 55%
[8]; 60 mg/kg/day oral
  inhibition of tumor growth: 35%

## O=C1CCC(N2C(=O)c3ccccc3S2(=O)=O)C(=O)N1 (stereo not shown) [Supidimide]
[1]; 200 mg/kg orally
  inhibitory activity on corneal neovascularization, in words: no activity
[1]; 200 mg/kg orally, day 8
  area of corneal neovascularization, % of control: 107 % of control

## O=C1CCC(N2C(=O)c3ccccc3C2=O)C(=O)N1 (stereo not shown) [Thalidomide, thalidomide]
[3]; dose 200 mg/kg
  % Inhibition of bFGF induced angiogenesis: 42%
[4]; dose 200 mg/kg
  % Inhibition of VEGF induced angiogenesis: 44%
[5]; [10]
  inhibition in vivo at 200 mg/kg: 41%
[7]; dose 200 mg/kg once daily
  % Inhibition of VEGF induced angiogenesis: 40%
[1]; 200 mg/kg orally
  density of vessel ingrowth: markedly reduced
  sedation of the rabbits: did not demonstrate obvious sedation
[1]; 200 mg/kg orally (FIG. 7)
  onset of inhibition of angiogenesis: after only two doses
[1]; 200 mg/kg orally, day 8
  inhibition of the area of vascularized cornea, range in three experiments: 30-51%
  median inhibition of the area of vascularized cornea: 36%
[8]; 200 mg/kg/day oral
  inhibition of tumor growth: 55%
[9]
  gastrointestinal symptoms, including diarrhea and cramping: lessened
  skin lesion on the lower leg: resolved

## O=C(O)c1cc2cc(Cc3cccnc3)ccc2o1 [furegrelate sodium]
[5]
  inhibition of bFGF induced neovascularization: 22%

## carbomethylheptyl imidazole
[5]
  inhibition of bFGF induced neovascularization: 32%
